Patent US5767116A, “Bicyclic aromatic compounds as therapeutic agents” (Knoll Atkiengesellschaft, priority 1993, dated 1998)
Structures can show the parent of a compound that is named as a salt. Where two headings read alike, the source gives them in different places.

Tests used:
α2-adrenoceptors = target: T1, α2-adrenoceptors (Rattus norvegicus, UniProt P22909); experiment: inhibition of tritiated ligand (tritiated idazoxan) binding to α2-adrenoceptors in vitro (frontal cortical tissue); parameters: species or system rat (male Charles River CD); details: for Ki: 0° C., 75 minutes, > from highest concentration which displaced ≤50% of the ligand; for inhibition at 1 µM: read-out: % displacement at 10^-6 M, α2, 10^-6 M, rat frontal cortical tissue, tritiated idazoxan
T1 sequence (P22909 1-465): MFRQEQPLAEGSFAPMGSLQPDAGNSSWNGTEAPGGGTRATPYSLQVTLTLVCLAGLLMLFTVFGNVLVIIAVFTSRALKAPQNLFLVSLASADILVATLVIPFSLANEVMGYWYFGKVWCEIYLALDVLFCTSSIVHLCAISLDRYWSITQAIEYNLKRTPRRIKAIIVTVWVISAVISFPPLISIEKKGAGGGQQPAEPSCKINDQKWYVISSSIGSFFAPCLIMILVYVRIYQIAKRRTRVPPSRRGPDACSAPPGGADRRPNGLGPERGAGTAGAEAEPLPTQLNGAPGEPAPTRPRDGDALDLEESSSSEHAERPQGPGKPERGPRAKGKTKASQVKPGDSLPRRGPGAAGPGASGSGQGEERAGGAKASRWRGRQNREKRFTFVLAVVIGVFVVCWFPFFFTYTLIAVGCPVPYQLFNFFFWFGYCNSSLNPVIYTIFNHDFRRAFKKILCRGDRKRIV
Description: Frontal cortical tissue from the brains of male Charles River CD rats weighing between 150-250 g were homogenised in ice-cold 0.25M sucrose (1:30 w/v) and centrifuged at 1,000 g at 4° C. for 12 minutes. The supernatant was stored on ice and the pellet was rehomogenised in 0.25M sucrose (1:15 w/v) and centrifuged at 850 g at 4° C. for 12 minutes. Combined supernatants were diluted with 5 mM Tris-HCl (pH 7.5) containing 0.5M ethylenediamine tetraacetic acid (EDTA) readjusted to pH 7.5 (at 25° C.) with 1M sodium hydroxide to 1:80 w/v, and centrifuged at 30,000 g at 4° C. for 10 minutes. The resulting pellet was resuspended in 5 mM Tris-HCl (pH 7.5) containing 5.68 mM L-ascorbic acid and 5 mM EDTA readjusted to pH 7.5 (at 25° C.) with 1M sodium hydroxide, and centrifuged at 30,000 g for 10 minutes. The final pellet was resuspended in 50 mM Tris-HCl (pH 7.5) containing 5.68 mM L-ascorbic acid and 5 mM EDTA (equivalent to 12.5 mg wet weight of tissue/ml) and used immediately in the binding assay. Aliquots (400 μl; equivalent to 5 mg wet weight of tissue/tube) of this suspension were added to tubes containing the ligand (50 μl; 1 nM) and distilled water (50 μl; total binding) or phentolamine (50 μl; 5 μM; non-specificbinding) or test compound (50 μl; at a single concentration of 10^-6 M or at 10 concentrations ranging from 10^-11 -10^-3 M). The ligand was tritiated idazoxan ((1,4-[6,7(n)-^3 H]benzodioxan-2-yl)-2-imidazoline hydrochloride) and the mixture was incubated at 0° C. for 75 minutes before the incubation was terminated by rapid filtration.
(§1) The filters were washed with ice-cold Tris-HCl buffer and dried. The filters were punched out into vials, scintillation fluid added and radioactivity determined by liquid scintillation counting. The percentage displacement of specific binding of the tritiated ligand was calculated for the single concentration (10^-6 M) of test compound. Displacement curves were then produced for those compounds which displaced ≥50% of specific binding of the tritiated ligand at 10^-6 M using a range of concentrations of the compound. […] The inhibition coefficient Ki was then calculated using the formula [formula] in which [ligand] is the concentration of the tritiated ligand used and KD is the equilibrium dissociation constant for the ligand.

α1-adrenoceptors = experiment: inhibition of tritiated ligand ([7-methoxy-^3 H]prazosin) binding to α1-adrenoceptors in vitro (whole cortical tissue); parameters: species or system rat (male Charles River CD); details: rat whole cortical tissue; for Ki: 30° C., 30 minutes, > from highest concentration which displaced ≤50% of the ligand; for % displacement at 10^-6 M, α1: 30 min, 1 µM
Description: The supernatant was centrifuged at 30,000 g at 4° C. for 10 minutes. […] Aliquots (400 μl; equivalent to 5 mg wet weight of tissue/tube) of this suspension were added to tubes containing the ligand (50 μl; 0.1 nM) and distilled water (50 μl; total binding) or phentolamine (50 μl; 5 μM; non-specific binding) or test compound (50 μl; at a single concentration of 10^-6 M or at 10 concentrations ranging from 10^-11 -10^-3 M). The ligand was [7-methoxy-^3 H]prazosin and the mixture was incubated at 30° C. for 30 minutes before the incubation was terminated by rapid filtration.
as §1, with “The” for “The filters were washed with ice-cold Tris-HCl buffer and dried. The”

5-HT1A receptors = target: T2, 5-HT1A receptors (Rattus norvegicus, UniProt P19327); experiment: biochemical; type: binding, rat (male Charles River CD); details: for Ki: 25° C., 30 minutes
T2 sequence (P19327 1-422): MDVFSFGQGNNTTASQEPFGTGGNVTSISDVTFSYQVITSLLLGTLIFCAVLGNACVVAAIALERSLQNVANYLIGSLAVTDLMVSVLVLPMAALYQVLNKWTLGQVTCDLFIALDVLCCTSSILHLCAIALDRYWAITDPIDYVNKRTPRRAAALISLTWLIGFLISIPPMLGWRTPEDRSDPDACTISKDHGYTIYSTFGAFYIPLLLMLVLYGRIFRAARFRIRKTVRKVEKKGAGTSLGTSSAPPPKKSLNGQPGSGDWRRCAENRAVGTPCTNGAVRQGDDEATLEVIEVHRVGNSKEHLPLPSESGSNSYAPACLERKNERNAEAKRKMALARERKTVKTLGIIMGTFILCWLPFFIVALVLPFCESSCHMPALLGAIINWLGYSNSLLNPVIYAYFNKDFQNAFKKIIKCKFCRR
Description: The pellet was rehomogenised in the same buffer, incubated at 37° C. for 10 minutes and centrifuged at 30,000 g at 4° C. for 10 minutes. […] Aliquots (400 μl; equivalent to 2.5 mg wet weight of tissue/tube) of this suspension were added to tubes containing the ligand (50 μl; 2 nM) and distilled water (50 μl; total binding) or 5-HT (50 μl; 10 µM; non-specific binding) or test compound (50 μl; at a single concentration of 10^-6 M or at 10 concentrations ranging from 10^-11 -10^-3 M). The ligand was [^3 H]8-hydroxy-2-(dipropylamino)tetralin([^3 H]8-OH-DPAT) and the mixture was incubated at 25° C. for 30 minutes before the incubation was terminated by rapid filtration.
as §1, with “The” for “The filters were washed with ice-cold Tris-HCl buffer and dried. The”

D2 dopamine receptors = D2 dopamine receptors (Rattus norvegicus, UniProt P61169); experiment: biochemical; type: binding, rat (male Charles River CD)
[1] = rat frontal cortical tissue, tritiated idazoxan
[2] = rat hippocampal tissue, [^3 H]8-OH-DPAT
[3] = rat striatal tissue, tritiated (S)-sulpiride, 4° C., 40 minutes
[4] = 10^-6 M, rat hippocampal tissue, [^3 H]8-OH-DPAT, read-out: % displacement at 10^-6 M, 5-HT1A
[5] = read-out: % displacement at 10^-6 M, 5-HT1A, 10^-6 M, rat hippocampal tissue, [^3 H]8-OH-DPAT
[6] = 10^-6 M, rat hippocampal tissue, [^3 H]8-OH-DPAT

D2 dopamine receptors, sequence (P61169 whole entry): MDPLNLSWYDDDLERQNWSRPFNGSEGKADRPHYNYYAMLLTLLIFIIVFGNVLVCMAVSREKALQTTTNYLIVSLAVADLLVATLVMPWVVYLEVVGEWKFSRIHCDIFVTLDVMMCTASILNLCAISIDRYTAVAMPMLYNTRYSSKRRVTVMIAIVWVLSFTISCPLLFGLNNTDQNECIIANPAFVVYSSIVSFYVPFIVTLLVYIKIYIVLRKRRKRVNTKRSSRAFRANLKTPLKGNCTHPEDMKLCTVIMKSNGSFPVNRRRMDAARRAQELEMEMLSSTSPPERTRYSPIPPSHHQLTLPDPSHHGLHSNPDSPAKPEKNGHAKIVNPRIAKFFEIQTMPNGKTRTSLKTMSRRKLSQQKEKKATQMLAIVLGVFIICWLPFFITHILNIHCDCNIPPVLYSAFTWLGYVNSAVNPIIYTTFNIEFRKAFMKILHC

Row | Compound | Ki (α2-adrenoceptors; [1]) [nM] | Ki (α1-adrenoceptors) [nM] | Ki (5-HT1A receptors; [2]) [nM] | Ki (D2 dopamine receptors; [3]) [nM] | % displacement at 10^-6 M, α1 (α1-adrenoceptors) [%] | other results
1 | FC(F)(F)c1cccnc1NCCNCC1COc2ccccc2O1 (stereo not drawn) [Example 8, N-(1,4-benzodioxan-2-ylmethyl)-N'-[3-(trifluoromethyl)-2-pyridyl)]-ethanediamine dihydrochloride] | 70 | 14 | 18.8 | 110 |  | 
2 | COc1ccccc1NCCCNCC1COc2cccc(OC)c2O1.O=C(O)/C=C\C(=O)O (stereo not drawn) [Example 17, N-(8-methoxy-1,4-benzodioxan-2-ylmethyl)-N'-(2-methoxyphenyl)-1,3-propanediamine maleate] | > 500 |  |  | 4.3 | 93 | inhibition at 1 µM (5-HT1A receptors; [4]): 99%
3 | Cl.Clc1ccccc1N1CCC(CNCC2COc3ccccc3O2)CC1 (stereo not drawn) [Example 22, N-(1,4-benzodioxan-2-ylmethyl)-1-[1-(2-chlorophenyl)piperid-4-yl]methylamine hydrochloride] |  |  |  | 43.5 | 71 | inhibition at 1 µM (α2-adrenoceptors): 63%; inhibition at 1 µM (5-HT1A receptors; [5]): 95%
4 | COc1ccccc1N1CCC(CNCC2COc3ccc4ccccc4c3O2)CC1 (stereo not drawn) [Example 24, 1-[1-(2-methoxyphenyl)piperid-4-yl]-N-(naphtho[1,2-b]dioxan-2-ylmethyl) methylamine hydrochloride 1.3 hydrate] | > 500 | > 500 |  | 81.3 |  | inhibition at 1 µM (5-HT1A receptors; [4]): 97%
5 | COc1cccc2c1OC(CNCC1CCN(c3cccc4c3OCC4)CC1)CO2.Cl (stereo not drawn) [Example 25, 1-[1-(2,3-dihydrobenzo[b]furan-7-yl)piperid-4-yl]-N-(8-methoxy-1,4-benzodioxan-2-ylmethyl) methylamine hydrochloride] |  |  |  | 20.9 | 99 | inhibition at 1 µM (α2-adrenoceptors): 96%; inhibition at 1 µM (5-HT1A receptors; [5]): 101%
6 | N-(5-fluoro-1,4-benzodioxan-2-ylmethyl)-1-[1-(2-methoxyphenyl) piperid-4-yl]methylamine hydrochloride and N-(8-fluoro-1,4-benzodioxan-2-ylmethyl)-1-[1-(2-methoxyphenyl) piperid-4-yl]methylamine hydrochloride [Example 23] |  |  |  |  | 92 | % displacement at 10^-6 M, α2 (α2-adrenoceptors; 10^-6 M, rat frontal cortical tissue, tritiated idazoxan, 1 µM): 75%; % displacement at 10^-6 M, 5-HT1A (5-HT1A receptors; [6]): 92%; Ki (D2 dopamine receptors): 43 nM
7 | N-(7-chloro-1,4-benzodioxan-2-ylmethyl)-1-[1-(2-methoxyphenyl) piperid-4-yl]methylamine and N-(6-chloro-1,4-benzodioxan-2-ylmethyl)-1-[1-(2-methoxy phenyl)-piperid-4-yl]methylamine 1.7 hydrochloride hydrate [Example 27] | > 500 |  |  | 61.7 | 58 | % displacement at 10^-6 M, 5-HT1A (5-HT1A receptors; [6]): 94%
8 | N-(7-chloro-1,4-benzodioxan-2-ylmethyl)-1-[1-(2-methoxyphenyl) piperid-4-yl]methylamine and N-(6-chloro-1,4-benzodioxan-2-ylmethyl)-1-[1-(2-methoxyphenyl) piperid-4-yl]methylamine hydrochloride hydrate [Example 26] | > 500 | > 500 |  | 82.5 |  | % displacement at 10^-6 M, 5-HT1A (5-HT1A receptors; [6]): 88%

Now from value to compound, other results behind:

Row | Ki (α2-adrenoceptors; [1]) [nM] | Ki (α1-adrenoceptors) [nM] | Ki (5-HT1A receptors; [2]) [nM] | Ki (D2 dopamine receptors; [3]) [nM] | Compound | % displacement at 10^-6 M, α1 (α1-adrenoceptors) [%] | other results
9 | > 500 | 34 | 8.2 | 46.4 | COc1cccc2c1CC(CNCC1CCN(c3ncccn3)CC1)CC2 (stereo not drawn) [Example 9, N-(8-methoxy-1,2,3,4-tetrahydronaphth-2-ylmethyl)-1-[1-(pyrimidin-2-yl)piperid-4-yl]methylamine 1.1 hydrochloride] |  | 
10 | > 500 | 339 | 7.7 | 310 | Oc1cccc2c1CC(CNCC1CCN(c3ncccn3)CC1)CC2 (stereo not drawn) [Example 10, 7-{N-[1-(pyrimidin-2-yl)piperid-4-ylmethyl}-aminomethyl)-5,6,7,8-tetrahydronaphth-1-ol dihydrobromide] |  | 
11 | > 500 | 31 | 14.7 | 12.9 | COc1cccc2c1CC(CNCC1CCN(c3ncccn3)CC1)CO2 (stereo not drawn) [Example 11, N-(5-methoxy-3,4-dihydro-2H-1-benzopyran-3-ylmethyl)-1-(1-(pyrimidin-2-yl)piperid-4-yl]methylamine monofumarate] |  | 
12 | > 500 | > 500 |  |  | COc1ccccc1N1CCC(CNCC2COc3cc(Cl)c(Cl)cc3O2)CC1 (stereo not drawn) [Example 21, N-(6,7-dichloro-1,4-benzodioxan-2-ylmethyl)-1-[1-(2-methoxyphenyl)piperid-4-yl]methylaminehydrochloride] |  | inhibition at 1 µM (5-HT1A receptors; [4]): 74%; inhibition at 1 µM (D2 dopamine receptors; 10^-6 M, rat striatal tissue, tritiated (S)-sulpiride, read-out: % displacement at 10^-6 M, D2): 104%
